Patent US8357654B2, “Multimeric CD40 ligands, method for preparing same and use thereof for preparing drugs” (Centre National de la Recherche Scientifique, priority 2004, dated 2013)
Non-standard residues stand in square brackets, D forms with d. Residues, ends and D or L forms follow the SMILES beside them. Groups on a side chain read outwards from the residue. No end group written: not given here. *: point of attachment. Biotin = O=C1N[C@H]2[C@H](CS[C@H]2CCCCC(=O)*)N1; Ahx = NCCCCCC(=O)O

Key:
[1] = test system: BL41 Burkitt's lymphoma cells (CD40+); experiment: Apoptosis of BL41 Burkitt's lymphoma cells, flow cytometry after DiOC6 labelling; type: cell-based; details: 16 hours
Experimental: (§1) The agonist effect of the ligands was tested by means of a simple biological test which is based on the property of certain B lymphomas of entering into apoptosis during the bridging of their membranous CD40 molecule (Tong et al., 1999). In fact, these B lymphomas enter into apoptosis during the bridging of their CD40 molecule by an anti-CD40 antibody or by soluble CD40L. The agonist ligands of CD40 will similarly induce an increase in the apoptosis of Burkitt's lymphoma cells which is measured by a precise analysis with flow cytometry.
(§2) BL41 Burkitt's or Raji (ATCC CCL-86) lymphoma cells (5.10^5/mL) two similar cell lines, are cultured in the presence of the different ligands at the desired concentrations. After 16 hours, the cells are labelled with 3,3′-dihexyloxacarbocyanine iodide (DiOC6) at 40 nM (Petit et al., 1995) in order to evaluate the percentage of apoptotic cells using flow cytometry.

[2] = test system: Raji (ATCC CCL-86) lymphoma cells (CD40+); experiment: Apoptosis of Raji lymphoma cells, flow cytometry after DiOC6 labelling; type: cell-based
Experimental: as §1, §2

[3] = biological target: T1, CD40-CD40L interaction (human CD40 muIg fusion protein, human CD154 muCD8 fusion protein) (Homo sapiens, UniProt P25942); experiment: BIAcore inhibition of the CD40-CD40L interaction; type: binding; details: ligand at 1 μM, CD40L at 35 nM
T1 construct: purchased ANCELL Corporation
Source text: (§3) The BIAcore 3000 is a device which allows the study of the interactions between two molecules. Based on surface plasmon resonance, it makes it possible to carry out measurements in real time and thus to follow the interaction kinetics (association and dissociation) of an “analyte” (which is found in an injected solution) with a “ligand” (immobilized on a microchip supporting the measurement). Kinetic measurements at different concentrations of analyte make it possible to calculate the affinity constants of the interaction between the ligand and the analyte. The microchip contains four cells with different measurements, which makes it possible to directly compare a reference cell on which a non-pertinent protein (a protein which has no affinity for the analyte studied but close to the ligand) is immobilized, with the cell on which the ligand is immobilized.
(§4) The test is carried out in two stages: measurement of the direct interaction of the ligands with the CD40 immobilized on the microchip and measurement of the inhibition of the CD40-CD40L interaction by the ligands.
(§5) Rabbit antibodies directed against the constant part of mouse immunoglobulins were immobilized on a microchip. […]
In order to regenerate the cells (i.e. to remove all the proteins adsorbed in non-covalent manner), a 10 mM HCl solution is injected at 5 μL/min over 1 minute. The cells are then ready for a new analysis.

[4] = biological target: T2, recombinant CD40 (human CD40 muIg fusion protein) (Homo sapiens, UniProt P25942); experiment: BIAcore direct interaction of the ligands with immobilized CD40; type: binding; details: BIAcore 3000, kinetics of direct association to immobilized CD40, 30 μL/min over 4 minutes; read-out: dissociation constant
T2 construct: purchased ANCELL Corporation, Bayport, Minn
Source text: as §3, §4, §5
In order to regenerate the cells (i.e. to remove all the proteins adsorbed in a non-covalent manner), a 50 mM HCl solution is injected at 5 μL/min over 1 minute. The cells are then ready for a new analysis.

T1 sequence (P25942 21-193 limits assumed): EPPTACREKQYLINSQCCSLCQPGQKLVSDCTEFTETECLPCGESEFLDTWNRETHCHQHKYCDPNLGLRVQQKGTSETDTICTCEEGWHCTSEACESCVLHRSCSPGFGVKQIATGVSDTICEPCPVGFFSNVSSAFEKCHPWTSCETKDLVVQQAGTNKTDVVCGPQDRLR
T2 sequence (P25942 21-193 limits assumed): as above

Compound: C[C@H]1NC(=O)[C@H](CCCCNC(=O)CCCCCNC(=O)[C@H](Cc2ccc(O)cc2)NC(=O)[C@H](Cc2ccc(O)cc2)NC(=O)CNC(=O)[C@@H](N)CCCCN)NC(=O)[C@@H](C)NC(=O)[C@H](CCCCNC(=O)CCCCCNC(=O)[C@H](Cc2ccc(O)cc2)NC(=O)[C@H](Cc2ccc(O)cc2)NC(=O)CNC(=O)[C@@H](N)CCCCN)NC(=O)[C@@H](C)NC(=O)[C@H](CCCCNC(=O)CCCCCNC(=O)[C@H](Cc2ccc(O)cc2)NC(=O)[C@H](Cc2ccc(O)cc2)NC(=O)CNC(=O)[C@@H](N)CCCCN)NC1=O [L4] (cyclo(K([Ahx-Tyr-Tyr-Gly-Lys])[dA]K([Ahx-Tyr-Tyr-Gly-Lys])[dA]K([Ahx-Tyr-Tyr-Gly-Lys])[dA]))
- specific apoptosis ([1]; ligand at 12.5 μM, DiOC6 flow cytometry (FIG. 5C)): 24%

Compound: L62: compound of formula (III-a) in which Rc is H-Lys-ψ(CH2N)-(D)Pro-Tyr-Tyr-NH—(CH2)5—CO— (peptide H-K[dP]YY[Ahx]; chain K[dA]K[dA]K[dA]; also: reduced bond psi(CH2N) between Lys1 and D-Pro2 of chain 1, three copies of chain 1 amide-linked via C-terminal Ahx to the three Lys side-chain amines of the ring (chain 2), head-to-tail to a chain's N/C-terminus)
- effectiveness and selectivity of apoptosis induction, in words ([2]; Raji and BL41 (CD40+) versus Jurkat (CD40−) cells, 16 hours (FIGS. 8A, 8B)): effective and selective ligand

Compound: H-Lys-Pro-Tyr-Tyr-Ahx-OH (H-KPYY[Ahx]-OH; SMILES NCCCC[C@H](N)C(=O)N1CCC[C@H]1C(=O)N[C@@H](Cc1ccc(O)cc1)C(=O)N[C@@H](Cc1ccc(O)cc1)C(=O)NCCCCCC(=O)O) [L45, control peptide in which D-Proline is replaced by L-Proline]
- biological activity (induction of apoptosis), in words ([1]; dose-response (FIG. 5B, 5C)): no activity

Compound: C[C@H]1NC(=O)[C@H](CCCCNC(=O)CCCCCNC(=O)[C@H](Cc2ccc(O)cc2)NC(=O)[C@H](Cc2ccc(O)cc2)NC(=O)[C@H]2CCCN2C(=O)[C@@H](N)CCCCN)NC(=O)[C@@H](C)NC(=O)[C@H](CCCCNC(=O)CCCCCNC(=O)[C@H](Cc2ccc(O)cc2)NC(=O)[C@H](Cc2ccc(O)cc2)NC(=O)[C@H]2CCCN2C(=O)[C@@H](N)CCCCN)NC(=O)[C@@H](C)NC(=O)[C@H](CCCCNC(=O)CCCCCNC(=O)[C@H](Cc2ccc(O)cc2)NC(=O)[C@H](Cc2ccc(O)cc2)NC(=O)[C@H]2CCCN2C(=O)[C@@H](N)CCCCN)NC1=O [L40] (cyclo(K([Ahx-Tyr-Tyr-dP-Lys])[dA]K([Ahx-Tyr-Tyr-dP-Lys])[dA]K([Ahx-Tyr-Tyr-dP-Lys])[dA]))
- inhibition of the binding of CD40L to CD40 [3]: 100%

Compound: L43: compound of formula (III-a) in which Rc is Ahx-(D)Pro-Tyr-Tyr-NH—(CH2)5—CO— (peptide [Ahx][dP]YY[Ahx]; chain K[dA]K[dA]K[dA]; also: three copies of chain 1 amide-linked via C-terminal Ahx to the three Lys side-chain amines of the ring (chain 2), head-to-tail to a chain's N/C-terminus)
- effectiveness in inducing apoptosis, in words ([2]; Raji cells, 16 hours, dose-response (FIG. 5D)): less effective than its homologue L4
- inhibition of the binding of CD40L to CD40 [3]: 30%

Compound: C[C@H]1NC(=O)[C@H](CCCCNC(=O)CCCCCNC(=O)[C@H](Cc2ccc(O)cc2)NC(=O)[C@H](Cc2ccc(O)cc2)NC(=O)CNC(=O)[C@@H](N)CCCCN)NC(=O)[C@@H](CCCCNC(=O)CCCC[C@@H]2SC[C@@H]3NC(=O)N[C@@H]32)NC(=O)[C@H](CCCCNC(=O)CCCCCNC(=O)[C@H](Cc2ccc(O)cc2)NC(=O)[C@H](Cc2ccc(O)cc2)NC(=O)CNC(=O)[C@@H](N)CCCCN)NC(=O)[C@@H](C)NC(=O)[C@H](CCCCNC(=O)CCCCCNC(=O)[C@H](Cc2ccc(O)cc2)NC(=O)[C@H](Cc2ccc(O)cc2)NC(=O)CNC(=O)[C@@H](N)CCCCN)NC1=O [L41] (cyclo(K([Ahx-Tyr-Tyr-Gly-Lys])[dA]K([Ahx-Tyr-Tyr-Gly-Lys])[dA]K([Ahx-Tyr-Tyr-Gly-Lys])[dK](Biotin)))
- Kd [4]: 28 nM
